“Also recorded” adds a separate entry of the source.
What was measured:
[1] = test system: HLA-ABC (antibody G46-2.6); assay: Anti-HLA antibody binding to PEG-phospholipid treated PBMCs, flow cytometry; type: cell-based; conditions: freshly isolated human PBMC
Text: (§1) To test the efficacy of the PEG-phospholipid (SUNBRIGHT®) PP-050CN, N-(methylpolyoxyethylene oxycarbonyl)-1,2-dipalmitoyl-sn-glycero-3-phosphoethanolamine, sodium salt, NOF Corp., Japan) to block binding of anti-HLA antibodies to HLA antigens, similar to in a potential clinical setting, we used human PBMCs from healthy donors to block the HLA antigens.
(§2) • FITC Mouse Anti-Human HLA-ABC; Monoclonal (G46-2.6) (BD Pharmingen) cat no. 555552 • Biotin Mouse Anti-human HLA Class I antibody [W6/32] (Abcam) cat no. ab110665 • PE-streptavidin (BD Pharmingen) cat no. 554061
(§3) PBMC was isolated from whole blood by using Cytiva™ Ficoll-Paque™ PLUS Media (Cytiva 17-1440-02) following standard protocol. In brief, whole blood was diluted in equal volume of PBS and carefully layered on top of Ficoll paque and centrifuged at 800×g for 25 mins. A cloudy layer was separated from the top of Ficoll and washed twice again with PBS.
(§4) The cells were stained with FITC mouse anti-human HLA-ABC monoclonal antibodies and biotin mouse anti-human HLA class | antibody [W6/32] (Abcam) followed by PE-streptavidin. The stained cells were analyzed by Beckman coulter cytoflex S (Biovis, facility, IGP, Rudbeck laboratory).

[2] = test system: HLA Class I (antibody W6/32); assay: as above; type: cell-based; conditions: freshly isolated human PBMC
Text: as §1, §2, §3, §4

[3] = test system: von Willebrand Factor (vWF); assay: Masking of antigens on HUVECs by coating with PEG-phospholipid, flow cytometry; type: cell-based, human; conditions: HUVEC, 0.5 mg/ml, 45 mins RT
Experimental: (§5) One hundred μL of HUVEC cell pellet (5×10^4 cells) were incubated in 0.5 mg/ml of PEG-phospholipid solution (final concentration, polyethylene glycol-phospholipid with PEG of 5 kDa (PEG-phospholipid) in PBS, SUNBRIGHT® PP-050CN, N-(methylpolyoxyethylene oxycarbonyl)-1,2-dipalmitoyl-sn-glycero-3-phosphoethanolamine, sodium salt, NOF Corp., Japan) or PBS for 45 mins at RT. Then, the cells were incubated with 5 μg/mL of FITC labelled antibodies for 15 min at RT: CD31 antibody (5 μg/ml) or isotype control Ab-FITC (BD biosciences) or with rabbit anti von Willebrand Factor (vWF) with rabbit IgG as control, both visualized by Alexa 488 goat anti-rabbit antibodies as given in Table 1.
(§6) Post analysis processing was carried out in FlowJo.

[4] = test system: CD31; assay: as above; type: cell-based, human; conditions: HUVEC, 0.5 mg/ml, 45 mins RT
Experimental: as §5, §6

[5] = test system: collectin-11 (CL-11); assay: Binding of lectin pathway recognition molecule to coated HUVEC after plasma exposure, flow cytometry; type: cell-based; conditions: 0.5 mg/ml, after human plasma exposure
Experimental: as §6

[6] = test system: Concanavalin A; conditions: HUVEC, 0.5 mg/ml, without plasma exposure
Experimental: HUVEC cells were cultured with endothelial cell culture medium with supplements (Promocell) in cell culture flasks (Thermofisher Scientific) and Petri dishes (NUNC). The cells were detached using trypsin EDTA buffer for flowcytometry analysis (BD accuri C6 Serial no. 5173). The cells were rinsed with PBS (10 mL) by centrifugation (120×g, 4° C., 3 min) once and fresh medium was added to the detached cells.
In addition, HUVEC cells were incubated with PEG-phospholipid (0.5 mg/ml), with 10 mM free PEG (5 kDa), or PBS (control) at RT for 45 min followed by washing with PBS, and incubation in human serum with EDTA-plasma as control, both diluted 1:50 in PBS, for 30 min at 37° C. After washing, lectin pathway recognition molecules collectin-11 (CL-11), and mannan binding lectin (MBL), were detected using the FITC-labelled and isotype control antibodies as given in Table 1. […] In addition, FITC-labelled concavalin A (a lectin of broad specificity) was incubated with coated and native HUVECs (without prior exposure to plasma) at a concentration of 50 g/ml.
After incubation with detecting antibodies, the cells were washed with PBS. All samples were analyzed on an Accuri C6 flow cytometer, unstained cells were used to gate the endothelial cell population. 10,000 events were recorded and additional controls in the form of isotype control and unstained control were ran in parallel. […]

[7] = test system: CD52; assay: Antibody binding to surface antigen on PEG-phospholipid coated CCRF-CEM, flow cytometry; type: cell-based, human; conditions: 2 mg/ml in PBS, 30 minutes room temperature; antigen around 1 nm
Experimental: (§7) CCRF-CEM were collected from cell culture medium (1×10^6 cells) and washed with PBS by centrifugation (250×g, 3 min, RT). A cell pellet of CCRF-CEM (1×10^6 cells) was incubated with PEG-phospholipid (50 μl, 2 mg/ml in PBS), 5 kDa unconjugated PEG (50 μl, 2 mg/ml in PBS) or PBS (50 μl, as control) for 30 min at RT with gentle mixing. After washing with PBS by centrifugation (200×g, 4° C., 3 min) twice, FITC-labeled three antibodies, FITC-anti-human CD52 from BioLegend (400 μg/ml, 40 μl), FITC-anti-human CD4 from BioLegend (200 μg/ml, 40 μl), or Alexa488-labelled anti-human CD8 from GeneTex (200 μg/ml, 40 μl, Alexa488 was labelled by the labelling kit) or PBS (40 μl) was mixed with the treated CCRF-CEM for 15 min at RT. As a control, CCRF-CEM was treated with 2 mg/ml PEG (5 kDa, in PBS) solution and additionally incubated with FITC- or Alexa488-labeled antibodies. After washing with PBS by centrifugation (200×g, 4° C., 3 min), CCRF-CEM were re-suspended with PBS (1 ml) for flow cytometry measurements. Samples were analyzed on a flow cytometer (BD LSR II, BD Biosciences). Post analysis processing was carried out in FlowJo (BD).
(§8) CCRF-CEM cells were incubated with PEG-phospholipid (2 mg/ml in PBS), free PEG (5 kDa, equivalent molecular weight used in the synthesis of PEG-phospholipid) or PBS (vehicle control) for 30 minutes at room temperature. After removing excess PEG-phospholipid, FITC-labelled antibodies directed towards surface antigens of different sizes, CD52, CD4, and CD8, were added. Samples were analyzed on a flow cytometer. […] The size of CD8 is estimated to be around 5-10 nm based on the crystal structure of the non-membranous part. Lastly, CD4-antibodies were not blocked by PEG-phospholipid, as expected, given that the size of the antigen (15 nm) is larger than the size of PEG-phospholipid (estimated to be around 6 nm) (FIG. 3A).

[8] = test system: CD4; assay: as above; type: cell-based, human; conditions: 2 mg/ml in PBS, 30 minutes room temperature; antigen 15 nm
Experimental: as §7, §8

[9] = test system: CD8; assay: as above; type: cell-based, human; conditions: 2 mg/ml in PBS, 30 minutes room temperature; antigen around 5-10 nm
Experimental: as §7, §8

[10] = test system: red blood cells; assay: Cell lysis of red blood cells caused by PEG-phospholipid coating; type: cell-based; conditions: at the levels able to efficiently mask surface antigens on red blood cells
Experimental: In order to investigate if the PEG-phospholipid was able to protect against complement mediated lysis, RBCs were used from 13 different donors who were typed for Rh complex and ABO antigens. RBCs were isolated and preincubated with PEG-phospholipid at varying concentrations, free PEG or PBS as described above. Cells were then washed (and the supernatant stored for analysis) with PBS (800 g×5 min, RT) and incubated with human serum (where the complement system is active) for 20 minutes at 37° C. They were then spun down again (800 g×5 min) and the supernatant was collected for analysis of hemolysis. The RBCs were analyzed for complement fixation (cells were incubated for 10 min with a
FITC-labelled anti-C3c antibody). RBCs were resuspended with PBS (1 mL) for flow cytometry measurements. […] Post analysis processing was carried out in FlowJo (BD). The supernatant was analyzed on a variable wavelength detection plate reader, Synergy HTX, for the absorbance at 540 nm. RBCs, which were lysed via osmotic stress, were run in parallel as positive controls. The background absorbance at 540 nm from PBS containing no cells was subtracted and the difference in absorbance between cells coated with PEG-phospholipid or PBS was then calculated.

## N-(methylpolyoxyethylene oxycarbonyl)-1,2-dipalmitoyl-sn-glycero-3-phosphoethanolamine [PEG-phospholipid]
[1]
  binding of anti-HLA-ABC G46-2.6 to PBMCs: robust inhibition
[1]; listed as PEG-phospholipids
  binding of anti-HLA-ABC G46-2.6 to PBMCs: inhibited
[2]
  binding of anti-HLA class I antibodies W6/32 to PBMCs: robust inhibition
[2]; listed as PEG-phospholipids
  binding of anti-HLA class I antibodies W6/32 to PBMCs: inhibited
[3]
  detection of vWF: did not decrease
[4]
  masking of CD31: < 20%
[5]
  binding of CL-11: substantially reduced
[6]
  binding of Concanavalin A: substantially reduced
[7]
  binding of antibodies directed towards CD52: entirely blocked; also recorded: near complete inhibition; also recorded: effective masking
[8]
  binding of CD4-antibodies: not blocked; also recorded: no significant masking
[9]
  binding capacity of CD8-antibodies: reduced but not entirely blocked; also recorded: partial masking
[10]
  cell lysis caused by the PEG-phospholipid molecules: did not cause any cell lysis

From patent US20250177448A1, “NEW USE OF PEG-PHOSPHOLIPID MOLECULES” (ICOAT MEDICAL AB, priority 2022, published 2025)
